{
  "source": "paper PMC5428354",
  "about": "“Screening of a natural compound library identifies emodin, a natural compound from Rheum palmatum Linn that inhibits DPP4” (PeerJ, 2017)",
  "key": {"DPP8": {"molecular_target": "DPP8 (Homo sapiens, UniProt Q6V1X1)", "sequence (Q6V1X1 whole entry)": "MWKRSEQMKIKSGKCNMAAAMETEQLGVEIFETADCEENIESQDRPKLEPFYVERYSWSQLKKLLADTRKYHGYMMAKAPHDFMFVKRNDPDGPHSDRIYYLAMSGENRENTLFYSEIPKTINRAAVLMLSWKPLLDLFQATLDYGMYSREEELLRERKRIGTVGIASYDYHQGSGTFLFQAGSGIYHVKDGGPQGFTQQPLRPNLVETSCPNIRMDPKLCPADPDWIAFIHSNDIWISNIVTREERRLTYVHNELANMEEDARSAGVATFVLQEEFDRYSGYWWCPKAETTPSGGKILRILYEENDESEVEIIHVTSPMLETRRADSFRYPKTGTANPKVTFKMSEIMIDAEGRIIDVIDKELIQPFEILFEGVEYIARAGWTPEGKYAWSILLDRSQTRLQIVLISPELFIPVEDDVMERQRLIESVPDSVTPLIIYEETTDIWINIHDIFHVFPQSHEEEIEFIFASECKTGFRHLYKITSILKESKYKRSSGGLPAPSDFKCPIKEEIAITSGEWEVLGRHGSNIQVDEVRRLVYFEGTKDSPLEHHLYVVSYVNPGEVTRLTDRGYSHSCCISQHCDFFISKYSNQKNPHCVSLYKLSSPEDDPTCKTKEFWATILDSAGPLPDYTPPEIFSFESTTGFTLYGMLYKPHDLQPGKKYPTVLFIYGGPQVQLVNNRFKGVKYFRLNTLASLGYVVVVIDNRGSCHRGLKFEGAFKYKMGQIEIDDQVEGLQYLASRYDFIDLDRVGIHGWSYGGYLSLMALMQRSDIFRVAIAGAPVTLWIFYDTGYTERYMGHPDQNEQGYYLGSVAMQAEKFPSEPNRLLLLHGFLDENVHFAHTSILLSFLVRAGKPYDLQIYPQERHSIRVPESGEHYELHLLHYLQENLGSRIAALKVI", "test": "DPP8 activity assay (BPS Bioscience kit);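 on DPP8 assay, Emission (450 nm): fluorescence read with excitation at 365 nm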", "type": "biochemical", "procedure": "A DPP8 assay kit was purchased from BPS Bioscience (Cat# 800208), and the assay protocol was followed to test for inhibitory activity on DPP8. Briefly, DPP substrate 1 was diluted to make a 100 µM stock solution, and DPP8 protein was diluted in DPP assay buffer to 2 ng/µl (20 ng/reaction). For the tested compounds, 10 µl of diluted DPP8 protein, 5 µl of diluted DPP substrate 1, 84 µl of DPP assay buffer and 1 µl of inhibitor were addedinto the assay system for a total volume of 100 µl. The reaction mixtures were prepared in duplicate on a 96-well plate and incubated at room temperature for 10 min. […]"}, "DPP4 [1]": {"molecular_target": "T1, DPP4 (Homo sapiens, UniProt P27487)", "T1 sequence (P27487 whole entry, species assumed)": "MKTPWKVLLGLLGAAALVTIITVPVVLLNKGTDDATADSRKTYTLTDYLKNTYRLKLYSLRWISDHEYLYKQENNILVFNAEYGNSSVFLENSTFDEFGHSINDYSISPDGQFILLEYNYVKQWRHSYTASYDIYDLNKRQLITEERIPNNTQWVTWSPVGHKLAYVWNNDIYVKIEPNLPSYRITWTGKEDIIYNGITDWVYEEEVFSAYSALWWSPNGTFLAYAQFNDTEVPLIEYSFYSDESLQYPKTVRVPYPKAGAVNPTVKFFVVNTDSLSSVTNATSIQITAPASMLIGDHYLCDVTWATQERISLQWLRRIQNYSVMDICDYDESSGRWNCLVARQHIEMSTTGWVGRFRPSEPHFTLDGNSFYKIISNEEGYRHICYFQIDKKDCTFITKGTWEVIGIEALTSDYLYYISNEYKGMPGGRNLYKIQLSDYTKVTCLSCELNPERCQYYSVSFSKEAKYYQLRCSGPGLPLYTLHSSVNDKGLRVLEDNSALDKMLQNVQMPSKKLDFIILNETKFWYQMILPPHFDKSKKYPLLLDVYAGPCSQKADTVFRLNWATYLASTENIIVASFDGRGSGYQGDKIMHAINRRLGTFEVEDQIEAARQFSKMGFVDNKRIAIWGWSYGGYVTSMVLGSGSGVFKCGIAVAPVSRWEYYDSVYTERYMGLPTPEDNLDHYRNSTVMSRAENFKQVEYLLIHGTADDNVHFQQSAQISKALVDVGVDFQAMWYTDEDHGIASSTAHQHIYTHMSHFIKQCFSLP", "test": "Dialysis assay followed by DPP4 assay", "type": "biochemical", "procedure": "Dialysis assay was performed using Slide-A-Lyzer Dialysis Cassettes (Pierce, Shanghai, China). Briefly, 2 mg DPP4 protein was incubated with emodin or dimethyl sulfoxide (DMSO) in 4 ml diluted assay buffer for 10 min at 37 °C. Mixed reaction solution was loaded onto a dialysis cartridge using a syringe and incubated at 4 °C for 8 h. The samples were removed from Dialysis Cassettes by syringes for DPP4 assay."}, "plasma DPP4 activity": {"molecular_target": "T2, plasma DPP4 activity (Mus musculus, UniProt P28843)", "T2 construct": "followed by plasma collection at different time points to measure DPP4 activity in the blood; from tissue; host or cells: mouse plasma (Balb/c and ob/ob mice)", "T2 sequence (P28843 37-760 limits assumed)": "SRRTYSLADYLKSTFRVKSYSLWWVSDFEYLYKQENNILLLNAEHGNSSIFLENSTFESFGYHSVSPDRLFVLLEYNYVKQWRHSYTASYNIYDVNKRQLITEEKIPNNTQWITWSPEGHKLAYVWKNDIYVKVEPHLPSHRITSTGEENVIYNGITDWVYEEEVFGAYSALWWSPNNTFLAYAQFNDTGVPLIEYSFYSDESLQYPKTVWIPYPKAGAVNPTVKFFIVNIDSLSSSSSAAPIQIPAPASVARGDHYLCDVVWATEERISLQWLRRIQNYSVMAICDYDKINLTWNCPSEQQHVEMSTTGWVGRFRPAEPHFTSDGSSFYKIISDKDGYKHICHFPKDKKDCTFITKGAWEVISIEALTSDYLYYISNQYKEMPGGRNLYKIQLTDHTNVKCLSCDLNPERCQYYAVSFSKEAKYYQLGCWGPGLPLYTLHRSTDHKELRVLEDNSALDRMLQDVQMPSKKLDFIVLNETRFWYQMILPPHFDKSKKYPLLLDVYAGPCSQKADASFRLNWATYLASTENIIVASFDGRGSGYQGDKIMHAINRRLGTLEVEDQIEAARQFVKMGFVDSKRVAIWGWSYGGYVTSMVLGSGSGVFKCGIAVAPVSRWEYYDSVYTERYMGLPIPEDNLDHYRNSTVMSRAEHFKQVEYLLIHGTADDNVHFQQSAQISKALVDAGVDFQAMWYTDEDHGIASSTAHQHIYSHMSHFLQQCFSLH", "test": "Plasma DPP4 activity after oral emodin (DPP4-Glo assay kit)", "type": "in vivo, mice", "details": "individual animals; for plasma DPP4 activity, raw signal: Balb/c mice; for DPP4 activity, raw signal: ob/ob mice", "procedure": "Balb/c mice (male, six weeks) and ob/ob (-/-) mice (male, six weeks) were purchased from the Shanghai SLAC Laboratory Animal Co. Ltd. (Shanghai, China) and maintained in an air-conditioned room at 20–25 °C under a 12 h dark/light cycle and fed certified standard chow and tap water ad libitum. Experiments were conducted in compliance with the Guide for the Care and Use of Laboratory Animals. Mice were orally administered with emodin (3, 10, or 30 mg /kg) and had their blood collected at 0.5, 1, 2, and 4 h after emodin treatment. The samples were subjected to plasma isolation immediately after collection. Plasma samples were tested for DPP4 activity with a DPP4-Glo assay kit (Promega, Beijing, China) according to the manufacturer’s protocol. The experimental protocol was approved by Animal Care and Use Committee of Xiamen University(XM2015030514).\nTo test the inhibitory activity of emodin on DPP4 in vivo, an animal experiment was conducted by oral administration of emodin (3, 10 and 30 mg/kg, P.O., n = 5) to Balb/c mice, followed by plasma collection at different time points to measure DPP4 activity in the blood. Plasma samples were collected at 0, 0.5, 1, 2 and 4 h after the oral dose of emodin, and plasma DPP4 activity was measured with a DPP4-Glo assay kit. […] The lowest does of emodin (3 mg/kg) decreased plasma DPP4 activity from baseline, although these levels rebounded after 1 h, whereas 10 and 30 mg/kg doses of emodin decreased plasma DPP4 activity and maintained the lower levels until 2 h post-treatment (Fig. 4). This dose-dependent manner is probably due to the pharmacokinetics of emodin, and 10 and 30 mg/kg have maximized the pharmacokinetic coverage, while 3 mg/kg emodin is only sufficient to maintain 1 h DPP4 inhibition in vivo. In the subsequent experiment, emodin (30 mg/kg, P.O.) was administered on Balb/C mice (n = 5) or ob/ob (-/-) mice (n = 5). The DPP4 activity, blood glucoselevels and GLP-1 activity were tested 0, 1, 2, 4, 8 h after administration. […] This downregulation maintained 2 h in Balb/C mice, and 4 h in ob/ob (-/-) mice, which rebounded afterwards (Fig. 5A). […] Plasma GLP-1 activity was also measured."}, "B6C3F1 mice": {"system": "B6C3F1 mice", "design": "method as in National Toxicology Program, 2001; Wang & Chung, 1997", "details": "280–2,500 ppm, ref National Toxicology Program, 2001, Wang & Chung, 1997, cited from earlier work"}, "F344/N rats": {"system": "F344/N rats", "design": "method as in National Toxicology Program, 2001; Wang & Chung, 1997", "details": "male F344/N rats, 280–2,500 ppm; ref National Toxicology Program, 2001; Wang & Chung, 1997; cited from earlier work"}, "DPP4 [2]": {"molecular_target": "T1, DPP4", "test": "Dialysis assay followed by DPP4 assay", "type": "biochemical", "details": "0 hr of dialysis; triplicate"}, "GLP-1": {"system": "GLP-1", "test": "Plasma GLP-1 activity after oral emodin", "type": "in vivo, mice", "design": "GLP-1: unit not given here", "details": "30 mg/kg P.O.; for GLP-1: ob/ob mice, individual animals", "procedure": "In the subsequent experiment, emodin (30 mg/kg, P.O.) was administered on Balb/C mice (n = 5) or ob/ob (-/-) mice (n = 5). […] This downregulation maintained 2 h in Balb/C mice, and 4 h in ob/ob (-/-) mice, which rebounded afterwards (Fig. 5A). […] Plasma GLP-1 activity was also measured."}, "DPP9": {"molecular_target": "T3, DPP9 (Homo sapiens, UniProt Q86TI2)", "T3 construct": "purchased BPS Bioscience 800209", "T3 sequence (Q86TI2 whole entry)": "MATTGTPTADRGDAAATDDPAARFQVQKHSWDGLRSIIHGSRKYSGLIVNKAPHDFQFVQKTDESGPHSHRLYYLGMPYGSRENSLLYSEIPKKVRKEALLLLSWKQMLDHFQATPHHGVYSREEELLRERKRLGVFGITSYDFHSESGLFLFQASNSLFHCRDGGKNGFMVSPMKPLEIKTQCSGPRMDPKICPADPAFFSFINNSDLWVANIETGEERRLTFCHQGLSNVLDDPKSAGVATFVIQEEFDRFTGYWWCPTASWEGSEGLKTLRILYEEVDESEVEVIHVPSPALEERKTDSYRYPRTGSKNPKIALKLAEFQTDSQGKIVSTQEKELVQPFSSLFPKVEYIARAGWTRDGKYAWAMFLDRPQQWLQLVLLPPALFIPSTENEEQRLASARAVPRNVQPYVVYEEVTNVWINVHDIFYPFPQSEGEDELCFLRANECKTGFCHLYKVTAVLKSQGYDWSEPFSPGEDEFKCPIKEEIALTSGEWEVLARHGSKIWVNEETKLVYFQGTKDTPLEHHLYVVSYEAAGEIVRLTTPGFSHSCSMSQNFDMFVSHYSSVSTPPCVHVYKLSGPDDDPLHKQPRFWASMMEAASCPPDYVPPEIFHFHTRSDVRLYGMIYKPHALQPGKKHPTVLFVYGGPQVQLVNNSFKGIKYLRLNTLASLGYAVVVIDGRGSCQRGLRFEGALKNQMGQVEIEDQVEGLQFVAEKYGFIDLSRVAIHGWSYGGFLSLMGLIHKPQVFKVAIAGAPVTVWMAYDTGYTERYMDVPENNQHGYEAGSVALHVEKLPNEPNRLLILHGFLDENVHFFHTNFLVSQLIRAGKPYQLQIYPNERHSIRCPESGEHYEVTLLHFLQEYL", "test": "DPP9 activity assay (BPS Bioscience kit)", "type": "biochemical", "details": "tested at 100 µM", "procedure": "A DPP9 assay kit was purchased from BPS Bioscience (Cat# 800209), and the assay protocol was followed to test for inhibitory activity against DPP9. Briefly, DPP substrate 1 was diluted to make a 100 µM stock solution, and DPP9 protein was diluted in DPP assay buffer to 2 ng/µl (20 ng/reaction). For the tested compounds, 10 µl of diluted DPP9 protein, 5 µl of diluted DPP substrate 1, 84 µl of DPP assay buffer and 1 µl of inhibitor were added into the assay system for a total volume of 100 µl. […]"}},
  "note": "Several values for one entry are separate records, joined by “and”; a condition that tells them apart may be missing. Identical values can stand only once.",
  "data": [
    {"compound": "Cc1cc(O)c2c(c1)C(=O)c1cc(O)cc(O)c1C2=O", "note": "[Emodin]", "values": [
      {"measurement": "DPP8 assay, Emission (450 nm)", "setting": "DPP8; 100 µM, Exp #1-#5", "value": "25326 and 25088 and 25860 and 47385 and 48311"},
      {"measurement": "DPP8 activity", "setting": "DPP8; 100 µM, Exp #1-#5, DMSO = Ctrl", "value": "91.7 % of Ctrl and 91.1 % of Ctrl and 90.2 % of Ctrl and 93.0 % of Ctrl and 89.9 % of Ctrl"},
      {"measurement": "activity against DPP8", "setting": "DPP8; tested at 100 µM", "value": "without inhibiting"},
      {"measurement": "DPP4 activity in dialysis assay", "setting": "DPP4 [1]; 8 hr of dialysis, triplicate", "value": "90 % of DMSO and 88 % of DMSO and 85 % of DMSO"},
      {"measurement": "DPP4 activity in dialysis assay, raw signal", "setting": "DPP4 [1]; 8 hr of dialysis, triplicate", "value": "4500000 RLU and 4400000 RLU and 4250000 RLU"},
      {"measurement": "manner of binding to the DPP4 active site", "setting": "DPP4 [1]; dialysis 8 h at 4 °C", "value": "reversible manner"},
      {"measurement": "plasma DPP4 activity, raw signal", "setting": "plasma DPP4 activity; 3 mg/kg P.O., time 1 h", "value": "213620 and 121520 and 101880"},
      {"measurement": "plasma DPP4 activity, raw signal", "setting": "plasma DPP4 activity; 10 mg/kg P.O., time 0.5 h", "value": "241067 and 195640 and 202693"},
      {"measurement": "DPP4 activity, raw signal", "setting": "plasma DPP4 activity; 30 mg/kg P.O., 0 hours (baseline)", "value": "3401200 and 3668100 and 3319500 and 3595400 and 3453300"},
      {"measurement": "DPP4 activity, raw signal", "setting": "plasma DPP4 activity; 30 mg/kg P.O., 1 hours", "value": "3125000 and 3575300 and 2433200 and 3311900 and 2854200"},
      {"measurement": "DPP4 activity, raw signal", "setting": "plasma DPP4 activity; 30 mg/kg P.O., 2 hours", "value": "3363400 and 2959900 and 2928700 and 2749100"},
      {"measurement": "DPP4 activity, raw signal", "setting": "plasma DPP4 activity; 30 mg/kg P.O., 4 hours", "value": "3275000 and 2989300 and 2592200 and 2835500 and 2877800"},
      {"measurement": "DPP4 activity, raw signal", "setting": "plasma DPP4 activity; 30 mg/kg P.O., 8 hours", "value": "3489100 and 3461100 and 2912800 and 3032000 and 2847400"},
      {"measurement": "plasma DPP4 activity, raw signal", "setting": "plasma DPP4 activity; 30 mg/kg P.O., time 2 h", "value": "196547 and 112320 and 158453"},
      {"measurement": "plasma DPP4 activity, raw signal", "setting": "plasma DPP4 activity; 30 mg/kg P.O., time 4 h", "value": "339907 and 323187 and 357187"},
      {"measurement": "carcinogenic activity", "setting": "B6C3F1 mice; female B6C3F1 mice", "value": "no evidence of carcinogenic activity"},
      {"measurement": "nephropathy", "setting": "B6C3F1 mice; female mice", "value": "increased incidences"},
      {"measurement": "renal tubule pigmentation", "setting": "B6C3F1 mice; male and female mice", "value": "increased incidences"},
      {"measurement": "carcinogenic activity", "setting": "F344/N rats", "value": "no evidence of carcinogenic activity"},
      {"measurement": "DPP4 activity in dialysis assay", "setting": "DPP4 [2]", "value": "55 % of DMSO and 58 % of DMSO and 62 % of DMSO"},
      {"measurement": "DPP4 activity in dialysis assay, raw signal", "setting": "DPP4 [2]", "value": "2750000 RLU and 2900000 RLU and 3100000 RLU"},
      {"measurement": "effect on plasma GLP-1 activity", "setting": "GLP-1; Balb/C and ob/ob (-/-) mice", "value": "marginal effect"},
      {"measurement": "GLP-1", "setting": "GLP-1; 0 hours (baseline)", "value": "1.6192 and 1.6714 and 1.7758 and 1.3843 and 3.4984"},
      {"measurement": "GLP-1", "setting": "GLP-1; 1 hours", "value": "2.9503 and 1.4365 and 2.8459 and 1.8541 and 2.8981"},
      {"measurement": "GLP-1", "setting": "GLP-1; 2 hours", "value": "3.5245 and 3.4201 and 0.5491 and 2.4022 and 2.2456"},
      {"measurement": "GLP-1", "setting": "GLP-1; 4 hours", "value": "0.9667 and 2.1673 and 1.2538 and 1.5148 and 2.9503"},
      {"measurement": "GLP-1", "setting": "GLP-1; 8 hours", "value": "3.655 and 0.784 and 1.2277 and 3.1852"},
      {"measurement": "activity against DPP9", "setting": "DPP9", "value": "without inhibiting"}
    ]}
  ]
}
